Reference: ChEMBL document CHEMBL4680212, “Discovery of T-1101 tosylate as a first-in-class clinical candidate for Hec1/Nek2 inhibition in cancer therapy” (Eur J Med Chem, 2020)
pIC50: −log10 of the molar value.

Experiments:
MDA-MB-231 [1] = assay: Antitumor activity against human MDA-MB-231 cells xenografted in SCID mouse assessed as tumor growth at 150 mg/kg, po administered twice daily for 28 days measured post last dose relative to control; format: functional; settings: time 28 day
MDA-MB-231 [2] = assay: Antiproliferative activity against human MDA-MB-231 cells measured after 96 hrs by CellTiter 96 Aqueous One Solution Reagent based assay; format: functional, cell-based; settings: MDA-MB-231, 96 h
MDA-MB-468 [3] = assay: Antiproliferative activity against human MDA-MB-468 cells measured after 96 hrs by CellTiter 96 Aqueous One Solution Reagent based assay; format: functional, cell-based; settings: MDA-MB-468, 96 h
K562 = assay: Antiproliferative activity against human K562 cells measured after 96 hrs by CellTiter 96 Aqueous One Solution Reagent based assay; format: functional, cell-based; settings: K562, 96 h
HeLa [4] = assay: Antiproliferative activity against human HeLa cells measured after 96 hrs by CellTiter 96 Aqueous One Solution Reagent based assay; format: functional, cell-based
[5] = AUC in CD-1 mouse at 10 mg/kg, po administered as single dose via gavage by LC-MS/MS analysis; format: ADME, organism-based; set-up: dose 10 mg/kg; settings: in vivo
[6] = Oral bioavailability in CD-1 mouse at 10 mg/kg administered as single dose via gavage by LC-MS/MS analysis; format: ADME, organism-based; settings: in vivo
MDA-MB-468 [7] = assay: Induction of mitosis in human MDA-MB-468 cells assessed as mitotic abnormalities at 1 uM measured after 24 hrs by immunofluorescence staining based microscopic analysis (reference value: 23%); format: functional
MDA-MB-468 [8] = assay: Induction of mitosis in human MDA-MB-468 cells assessed as mitotic abnormalities at 1 uM measured after 48 hrs by immunofluorescence staining based microscopic analysis (reference value: 23%); format: functional
HeLa [9] = assay: Cell cycle arrest in human HeLa cells assessed as accumulation at sub-G1 phase at 1 uM measured after 24 hrs by propidium iodide staining based FACS analysis (reference value: 3.64%); format: functional
HeLa [10] = assay: Cell cycle arrest in human HeLa cells assessed as accumulation at G1 phase at 1 uM measured after 24 hrs by propidium iodide staining based FACS analysis (reference value: 66.51%); format: functional
HeLa [11] = assay: Cell cycle arrest in human HeLa cells assessed as accumulation at S phase at 1 uM measured after 24 hrs by propidium iodide staining based FACS analysis (reference value: […]%); format: functional
HeLa [12] = assay: Cell cycle arrest in human HeLa cells assessed as accumulation at G2/M phase at 1 uM measured after 24 hrs by propidium iodide staining based FACS analysis (reference value: 12.93%); format: functional
U-937 = assay: Antiproliferative activity against human U-937 cells measured after 96 hrs by CellTiter 96 Aqueous One Solution Reagent based assay; format: functional
COLO 205 = assay: Antiproliferative activity against human COLO 205 cells measured after 96 hrs by CellTiter 96 Aqueous One Solution Reagent based assay; format: functional
U2OS = assay: Antiproliferative activity against human U2OS cells measured after 96 hrs by CellTiter 96 Aqueous One Solution Reagent based assay; format: functional
[13] = molecular target: Voltage-gated inwardly rectifying potassium channel KCNH2 (Homo sapiens, UniProt Q12809); assay: Inhibition of human ERG
Voltage-gated inwardly rectifying potassium channel KCNH2, sequence (Q12809 whole entry): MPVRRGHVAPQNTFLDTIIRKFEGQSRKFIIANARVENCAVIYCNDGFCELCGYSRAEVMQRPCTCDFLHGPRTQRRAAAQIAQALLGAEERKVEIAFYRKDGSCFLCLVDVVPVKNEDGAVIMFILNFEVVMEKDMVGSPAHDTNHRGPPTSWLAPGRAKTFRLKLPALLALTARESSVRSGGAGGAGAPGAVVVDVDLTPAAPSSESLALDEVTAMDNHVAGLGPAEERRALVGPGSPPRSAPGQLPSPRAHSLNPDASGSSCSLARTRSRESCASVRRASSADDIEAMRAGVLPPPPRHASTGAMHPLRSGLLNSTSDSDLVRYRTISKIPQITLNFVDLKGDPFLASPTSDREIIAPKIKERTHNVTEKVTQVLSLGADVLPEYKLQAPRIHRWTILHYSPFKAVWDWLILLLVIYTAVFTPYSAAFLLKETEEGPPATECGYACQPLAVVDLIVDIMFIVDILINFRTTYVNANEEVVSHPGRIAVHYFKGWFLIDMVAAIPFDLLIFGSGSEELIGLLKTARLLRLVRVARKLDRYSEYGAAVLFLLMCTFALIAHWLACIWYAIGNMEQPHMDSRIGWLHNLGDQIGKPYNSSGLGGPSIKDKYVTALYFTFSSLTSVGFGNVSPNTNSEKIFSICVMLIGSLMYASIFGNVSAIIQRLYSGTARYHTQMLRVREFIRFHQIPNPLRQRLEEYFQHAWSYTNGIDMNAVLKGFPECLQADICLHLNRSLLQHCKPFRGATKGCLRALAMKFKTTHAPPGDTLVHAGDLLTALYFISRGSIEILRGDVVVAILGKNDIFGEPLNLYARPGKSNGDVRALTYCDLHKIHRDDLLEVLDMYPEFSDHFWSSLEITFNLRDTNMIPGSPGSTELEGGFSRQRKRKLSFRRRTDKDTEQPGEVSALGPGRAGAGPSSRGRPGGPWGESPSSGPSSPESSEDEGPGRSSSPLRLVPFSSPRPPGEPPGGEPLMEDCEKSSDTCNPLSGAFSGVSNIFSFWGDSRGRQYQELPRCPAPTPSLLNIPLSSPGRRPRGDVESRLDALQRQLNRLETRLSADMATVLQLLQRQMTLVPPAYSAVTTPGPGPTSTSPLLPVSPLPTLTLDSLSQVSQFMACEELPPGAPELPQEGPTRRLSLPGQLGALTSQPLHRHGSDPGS

[14] = Drug level in tumor of human Huh-7 cells xenografted SCID mouse at 10 mg/kg, iv measured after 0.5 hrs by LC-MS/MS analysis; format: ADME, organism-based, Neoplasm; settings: read-out: Drug uptake
[15] = Drug level in tumor of human Huh-7 cells xenografted SCID mouse at 10 mg/kg, iv measured after 1 hr by LC-MS/MS analysis; format: ADME, organism-based, Neoplasm; settings: read-out: Drug uptake
[16] = Drug level in tumor of human Huh-7 cells xenografted SCID mouse at 10 mg/kg, iv measured after 4 hrs by LC-MS/MS analysis; format: ADME, organism-based, Neoplasm; settings: read-out: Drug uptake
[17] = Drug level in tumor of human Huh-7 cells xenografted SCID mouse at 10 mg/kg, iv measured after 8 hrs by LC-MS/MS analysis; format: ADME, organism-based, Neoplasm; settings: read-out: Drug uptake
[18] = Drug level in tumor of human Huh-7 cells xenografted SCID mouse at 10 mg/kg, iv measured after 12 hrs by LC-MS/MS analysis; format: ADME, organism-based, Neoplasm; settings: read-out: Drug uptake
[19] = Drug level in tumor of human Huh-7 cells xenografted SCID mouse at 10 mg/kg, iv measured after 24 hrs by LC-MS/MS analysis; format: ADME, organism-based, Neoplasm; settings: read-out: Drug uptake
Huh-7 [20] = assay: Antiproliferative activity against human Huh-7 cells by CellTiter 96 Aqueous One Solution Reagent based assay; format: functional; set-up: dose or concentration left out as unconfirmed
Huh-7 [21] = assay: Anticancer activity against human Huh-7 cells after 24 hrs by CellTiter 96 Aqueous One Solution Reagent based assay; format: functional
[22] = Ratio of drug level in tumor to plasma of human Huh-7 cells xenografted SCID mouse at 10 mg/kg, iv measured after 0.5 hrs by LC-MS/MS analysis; format: ADME, organism-based; settings: tumour
[23] = Ratio of drug level in tumor to plasma of human Huh-7 cells xenografted SCID mouse at 10 mg/kg, iv measured after 1 hr by LC-MS/MS analysis; format: ADME, organism-based; settings: tumour
[24] = Ratio of drug level in tumor to plasma of human Huh-7 cells xenografted SCID mouse at 10 mg/kg, iv measured after 4 hrs by LC-MS/MS analysis; format: ADME, organism-based; settings: tumour
[25] = Ratio of drug level in tumor to plasma of human Huh-7 cells xenografted SCID mouse at 10 mg/kg, iv measured after 8 hrs by LC-MS/MS analysis; format: ADME, organism-based; settings: tumour
[26] = Ratio of drug level in tumor to plasma of human Huh-7 cells xenografted SCID mouse at 10 mg/kg, iv measured after 12 hrs by LC-MS/MS analysis; format: ADME, organism-based; settings: tumour
[27] = Ratio of drug level in tumor to plasma of human Huh-7 cells xenografted SCID mouse at 10 mg/kg, iv measured after 24 hrs by LC-MS/MS analysis; format: ADME, organism-based; settings: tumour
[28] = Drug level in tumor of human MDA-MB-231 cells xenografted SCID mouse at 10 mg/kg, iv measured after 2 hrs by LC-MS/MS analysis; format: ADME, organism-based, Neoplasm; settings: read-out: Drug uptake
[29] = Ratio of drug level in tumor to plasma of human MDA-MB-231 cells xenografted SCID mouse at 10 mg/kg, iv measured after 2 hrs by LC-MS/MS analysis; format: ADME, organism-based; settings: tumour
Huh-7 [30] = assay: Antitumor activity against human Huh-7 cells xenografted in SCID mouse assessed as tumor growth at 50 mg/kg, po administered twice daily for 28 days measured post last dose relative to control; format: functional; settings: time 28 day
BT-474 = assay: Antitumor activity against human BT-474 cells xenografted in SCID mouse assessed as tumor growth at 50 mg/kg, po administered twice daily for 28 days measured post last dose relative to control; format: functional; settings: time 28 day
MCF7 = assay: Antitumor activity against human MCF7 cells xenografted in SCID mouse assessed as tumor growth at 50 mg/kg, po administered twice daily for 28 days measured post last dose relative to control; format: functional; settings: time 28 day
MDA-MB-231 [31] = assay: Antitumor activity against human MDA-MB-231 cells xenografted in SCID mouse assessed as tumor growth at 25 mg/kg, po administered twice daily for 28 days measured post last dose relative to control; format: functional; settings: time 28 day
Huh-7 [32] = assay: Antitumor activity against human Huh-7 cells xenografted in SCID mouse assessed as tumor growth at 25 mg/kg, po administered once daily for 28 days measured post last dose relative to control; format: functional; settings: time 28 day
Huh-7 [33] = assay: Antitumor activity against human Huh-7 cells xenografted in SCID mouse assessed as tumor growth at […], po administered twice daily for 28 days measured post last dose in presence of sorafenib relative to control; format: functional; settings: time 28 day
Huh-7 [34] = assay: Antitumor activity against human Huh-7 cells xenografted in SCID mouse assessed as tumor growth at […], po administered twice daily for 28 days measured post last dose relative to control; format: functional; settings: time 28 day
[35] = Tmax in CD-1 mouse at 10 mg/kg, po administered as single dose via gavage by LC-MS/MS analysis; format: ADME, organism-based; settings: in vivo
[36] = Cmax in CD-1 mouse at 10 mg/kg, po administered as single dose via gavage by LC-MS/MS analysis; format: ADME, organism-based; set-up: route oral, dose 10 mg/kg; settings: in vivo
[37] = Half life in CD-1 mouse at 10 mg/kg, po administered as single dose via gavage by LC-MS/MS analysis; format: ADME, organism-based; settings: in vivo
[38] = Toxicity in Sprague-Dawley rat assessed as effect on locomotor activity up to 60 mg/kg, po administered as single dose; format: organism-based; settings: in vivo
[39] = Toxicity in Sprague-Dawley rat assessed as restlessness up to 60 mg/kg, po administered as single dose; format: organism-based; settings: in vivo
[40] = Toxicity in Sprague-Dawley rat assessed as lethargy up to 60 mg/kg, po administered as single dose; format: organism-based; settings: in vivo
[41] = Toxicity in Sprague-Dawley rat assessed as tremor up to 60 mg/kg, po administered as single dose; format: organism-based; settings: in vivo
[42] = Toxicity in Sprague-Dawley rat assessed as convulsion up to 60 mg/kg, po administered as single dose; format: organism-based; settings: in vivo
[43] = Toxicity in Sprague-Dawley rat assessed as change in touch response up to 60 mg/kg, po administered as single dose; format: organism-based; settings: in vivo
[44] = Toxicity in Beagle dog assessed as cardiopulmonary effect at 40 mg/kg, po administered as single dose; format: organism-based, Canis lupus familiaris; settings: in vivo
[45] = Toxicity in Sprague-Dawley rat assessed as change in clinical pathology at 60 mg/kg, po measured during 28 days; format: organism-based; settings: in vivo, time 28 day
[46] = Toxicity in Sprague-Dawley rat assessed as change in serum biochemistry at 60 mg/kg, po measured during 28 days; format: organism-based; settings: in vivo, time 28 day
[47] = Toxicity in Sprague-Dawley rat assessed as effect on organ at 60 mg/kg, po measured during 28 days; format: organism-based; settings: in vivo, time 28 day

COc1ccc(Oc2cc(C)c(-c3csc(NC(=O)c4ccncc4)n3)c(C)c2)cc1
T/C (MDA-MB-231 [1]): 50%

COCCOc1cnc(Sc2cc(C)c(-c3csc(NC(=O)c4ccncc4)n3)c(C)c2)cn1
pIC50 (MDA-MB-231 [2]): 7.83 | pIC50 (MDA-MB-468 [3]): 7.67 | pIC50 (K562): 7.74 | pIC50 (HeLa [4]): 7.68 | AUC [5]: 43.5 µM·h | bioavailability [6]: 50.6% | Activity (MDA-MB-468 [7]): 45% | Activity (MDA-MB-468 [8]): 64% | Activity (HeLa [9]): 20.44% | Activity (HeLa [10]): 54.2% | Activity (HeLa [11]): 15.07% | Activity (HeLa [12]): 9.27% | GI50 (U-937): 12.4 nM | GI50 (COLO 205): 29.1 nM | GI50 (U2OS): 83.2 nM | inhibition (INH) [13]: Not Active | concentration at 0.5 h [14]: 3380 nM | concentration at 1 h [15]: 2660 nM | concentration at 4 h [16]: 2070 nM | concentration at 8 h [17]: 937 nM | concentration at 12 h [18]: 507 nM | concentration at 24 h [19]: 59.9 nM | GI50 (Huh-7 [20]): 35 nM | GI50 (Huh-7 [21]): 59.9 nM | Ratio [22]: 20.7% | Ratio [23]: 26.1% | Ratio [24]: 33.2% | Ratio [25]: 35% | Ratio [26]: 60.5% | Ratio [27]: 41.1% | concentration at 2 h [28]: 2950 nM | Ratio [29]: 24.1% | T/C (Huh-7 [30]): 18% | T/C (BT-474): 19% | T/C (MCF7): 52% | T/C (MDA-MB-231 [31]): 40% | T/C (Huh-7 [32]): 25% | T/C (Huh-7 [33]): 26% | T/C (Huh-7 [34]): 61% | Tmax [35]: 0.5 h | Cmax [36]: 6300 nM | half-life [37]: 2.57 h | Activity [38]: Non-Toxic | Activity [39]: Non-Toxic | Activity [40]: Non-Toxic | Activity [41]: Non-Toxic | Activity [42]: Non-Toxic | Activity [43]: Non-Toxic | Activity [44]: Non-Toxic | Activity [45]: Non-Toxic | Activity [46]: Non-Toxic | Activity [47]: Non-Toxic
